# Marks after values point to notes of the source that are not given here.
# Key:
# [1] = system: Salmonella enterica (ATCC 14028); test: Disc diffusion antimicrobial screening, Salmonella enterica; format: cell-based; conditions: 100 µg/disc
# Description: All compounds were screened for their antimicrobial activity at the Microbiology and Immunology Department, Faculty of Pharmacy, Beni-Suef University. The antimicrobial activity screening was carried out using the disc diffusion method, as described earlier, with some adjustments.
# For each indicator microbe, a solution of half McFarland turbidity was prepared in sterile saline, followed by surface streaking of the strains on Mueller-Hinton agar with a sterile cotton swab. Then, sterile filter paper discs (5 mm diameter) preloaded with 100 µg of each compound were applied to the surface of the pre-inoculated plates. Then, the plates were chilled at 4 °C for 100 min before being incubated overnight at the proper temperature for microbial growth. Finally, the diameter of the inhibition zones around each disc was measured to evaluate the antimicrobial activity of the compounds. Ciprofloxacin was used as a standard antibacterial agent at a concentration of 20 µg/disc. Furthermore, DMSO-loaded discs were used as a negative control.
# DPPH free radical assay = format: biochemical; conditions: 540 nm, 30 min, relative to Trolox
# Description: (§1) Preparation of samples was occurred at the following concentrations: Samples 3a, 4a, 5b, 5d and 5e at final concentrations of 0.5 mg/ml in methanol: DMSO 9:1 v/v. Samples 4b and 4d at final concentrations 0.025 mg/ml in methanol: DMSO 9:1 v/v, sample 5a at final concentrations 0.25 mg/ml in methanol: DMSO 9:1 v/v, Sample 4c, 5c and 4e at final concentrations 0.05 mg/ml in methanol: DMSO 9:1 v/v, sample 3b at final concentration 0.75 mg/ml methanol: DMSO 9:1 v/v. A stock solution of 100 µM concentration of Trolox, a standard used in this experiment, was prepared in methanol from which seven concentrations were prepared, including 50, 40, 30, 20, 15, 10 and 5 µM.
# The DPPH (2,2-diphenyl-1-picryl-hydrazyl-hydrate) free radical assay was carried out according to the method of Boly et al. 2016[39]. Briefly, freshly prepared DPPH reagent (100 µl, 0.1% in methanol) was added to 100 µl of the sample on 96 well plates (n = 6). The reaction was incubated at room temp for 30 min in the dark. After completion of the incubation time, the reduction in DPPH colour intensity was measured at 540 nm. Data obtained was represented as means ± SD, according to the following equation, percentage inhibition = [(Average absorbance of blank – average absorbance of the test)/(Average absorbance of blank)] *100. The results were recorded using a microplate reader, FluoStar Omega.
# Microsoft Excel® was used to analyse the obtained results. The IC50 values were calculated using Graph pad Prism 6® by converting the concentrations to their logarithmic value and selecting the non-linear inhibitor regression equation (log (inhibitor) vs. normalised response – variable slope equation). The methods used and the final test report (R-SO7320) were obtained from Nawah Scientific.
# [2] = system: TNF-α in RAW264.7 macrophage cells; test: In vitro measurement of TNF-α in RAW264.7 macrophage cells (RT-qPCR); format: cell-based
# Excerpt: Both Lipopolysaccharides (LPS) and hispidin were purchased from Sigma (Sigma-Aldrich, St. Louis, MO, USA)[40]. The foetal bovine serum (FBS) and Dulbecco’s modified Eagle’s medium (DMEM) were purchased from Hyclone (General Electric Healthcare Life Sciences, Mississauga, Canada), penicillin streptomycin (P/S) was purchased from Solarbio (Solarbio life sciences, Beijing, P. R. China). Results of all in vitro anti-inflammatory screening were obtained from the confirmatory diagnostic unit, VACSERA, Egypt.
# DMEM was used to cultivate the macrophage cells RAW264.7 (Shanghai BOGO Industrial Co., Ltd., Shanghai, China), and supplemented with 10% FBS and 1% P/S (100 U/ml and […], respectively). […] They were treated with various concentrations of hispidin, then with 1 μg/ml LPS for the indicated time.
# PBS (1 ml/well) was used to wash the cells in 24-well plates. […] For the experiments, CL Buffer included MgCl2 (M1028; Sigma) or RNasin Plus RNase Inhibitor (N2615; Promega). Before use, both Bio-Rad SPR and CL buffer were equilibrated to room temperature. […] Carefully, the resulting lysates were collected and either analysed immediately or stored frozen ([…]).
# RT-qPCR analysis was performed in one-step SYBR Green RT-qPCR. […] A CFX96 real-time PCR instrument (Bio-Rad) was used under the following protocol: 50uC for 10 min, 95uC for 5 min, 95uC for 10 s/61uC for 15 s/72uC for 30 s.
# Total RNA purified from cells was used as an RT-qPCR quantification standard.
# [3] = Dissolution of DPPH samples in DMSO/methanol; format: physicochemical; conditions: DPPH sample preparation, methanol: DMSO 9:1 v/v
# Description: as §1
# [4] = system: heart function biomarkers (LDH, CK-MB, and troponin); test: Cardiac function biomarkers in rat serum; format: in vivo, rats; conditions: 50 mg/kg/day p.o. for 2 weeks, mean ± SEM
# Description: (§2) Eighteen rats were divided into three groups at random (6 animals in each group). The first group was given a vehicle and served as normal control. […] Ketamine (100 mg/kg) was used to anaesthetise the animals on the 15th day. Blood samples were obtained from the retro orbital, allowed to clot, centrifuged at 1000 g for 15 min, and utilised to examine heart function biomarkers (LDH, CK-MB, and troponin). The abdomen of each rat was opened, and the heart was extracted and washed in ice-cold physiological saline before being harnessed for histological investigation.
# heart = test: Histopathological examination of the heart; format: in vivo; conditions: rats, two weeks administration, H&E stain
# Description: as §2
Compound,antibacterial activity against Salmonella enterica [1],DPPH test results (µM trolox equivalent/ 1mg sample ± SD) (DPPH free radical assay),TNF-α fold change [2],solubility of sample in DMSO and methanol [3],CK-MB [4],LDH [4],Troponin I [4],heart histopathology finding (heart)
"COc1ccc(NC(=S)N/N=C/c2cn(S(C)(=O)=O)c3ccccc23)cc1 [Compound 4e, (E)-N-(4-Methoxyphenyl)-2{[1-(methylsulfonyl)-1H-indol 3yl]methylene}hydrazinecarbothioamide]",selective antibacterial activity,161.21 ± 7.98 µM trolox equivalent/ 1mg sample,0.26,–,–,–,–,–
Cc1ccc(N2C(=O)CSC2=NN=Cc2cn(S(C)(=O)=O)c3ccccc23)cc1 [Compound 5d],–,–,0.21,didn’t dissolve in DMSO nor in methanol,"0.315 ± 0.035^a,b ng/ml","536 ± 28^a,b U/L",0.0015 ± 0.0005^b ng/ml,little or no toxic effects on the heart

# From paper PMC9721424, “Novel N-methylsulfonyl-indole derivatives: biological activity and COX-2/5-LOX inhibitory effect with improved gastro protective profile and reduced cardio vascular risks” (Journal of Enzyme Inhibition and Medicinal Chemistry, 2022)
